Measurements from patent publication US20040235866A1, “Lymphocytic activation inhibitor and remedial agent for autoimmune disease” (priority 2001, published 2004).
Like-named read-outs stand apart in the source and are kept apart here.

What was measured:
[1] = tested on: spleen lymphocytes cultured with PLP139-151; experiment: Inhibition effect for lymphocyte activation (antigen-specific division, 3H-thymidine uptake); format: cell-based; conditions: female SJL/J mouse spleen lymphocytes, PLP139-151 stimulation, 5 days culture, read-out: IC 50 (inhibition of antigen-specific division of the lymphocytes)
Description: Immunizing a mounse with a partial peptide of a proteolipid protein (PLP), a central myelin protein, induces a chronic encephalomyelitis therein. Sampling lymphocytes from the spleen of the mouse and stimulating by an antigen in vitro allow the induction of antigen-specific activation and division of the lymphocyte. The effect of a drug to the reaction was examined to evaluate the inhibition effect of the drug for lymphocyte activation. Specifically, a female SJL/J mouse was immunized with an adjuvant containing a PLP partial peptide (PLP139-151) under ether anesthesia. On the day of immunization and 2 days thereafter, deactivated Bordetella pertussis (one billion/mouse) was intravenously administered. On 7th or 8th day after the immunization, the mouse was killed by ether anesthesia and then the spleen thereof was extracted to isolate spleen lymphocytes. […] The compound numbers are the same as those described in the previous list (hereinafter, the same).

[2] = tested on: experimental encephalomyelitis model (PLP peptide p139-151 immunized mouse); experiment: Effect in an experimental encephalomyelitis model; format: in vivo; conditions: female SJL/J mouse, 200 mg/kg orally from 5th day to 12th day after initial sensitization, FIG. 2
Experimental: 100 μl of a Freund's complete adjuvant (Difco, containing 0.6 mg/ml of M. tuberculosis H37Ra) containing the PLP peptide (p139-151, Toray Research Center) was subcutaneously injected to a female SJL/J mouse in the back thereof under ether anesthesia for immunization (initial sensitization). Two days after, deactivated Bordetella pertussis was intravenously injected in an amount of about one billion per mouse. Seven days after, immunization was conducted again with the antigen. Over several weeks thereafter, abnormalities in limbs, a tail, and righting reflexes were graded into scored levels and recorded. The subjective compound was orally administered in an amount of 200 mg/kg from 5th day to 12th day after the initial sensitization. In experiments, 12 mice were used for each of a control group and a drug-administered group.
Note that, the experimental encephalomyelitis model described above is a model in which a lymphocyte activated by reacting with an immunized PLP peptide causes an immunoreaction to induce encephalomyelitis, and is widely recognized as a model for evaluating a pharmacological effect of a compound having a lymphocyte activation inhibition effect (e.g., Agents and Actions, 27, 351-355 (1989); and Agents and Actions, 35, 79-84 (1992)).

mice = experiment: Successive 15-day administration to mice (toxicity observation); format: in vivo; conditions: 100 mg/kg and 200 mg/kg successively for 15 days
Description: It is thus considered that the compound represented by the general formula (I) has low toxicity.

[3] = tested on: mouse collagen-induced arthritis; experiment: Effect on mouse collagen-induced arthritis; format: in vivo; conditions: DBA/1JN male mouse, FIG. 1
Experimental: A DBA/1JN male mouse (7 weeks of age) was sensitized by intracutaneously injecting in the tail part thereof with 0.1 ml of an emulsion solution obtained by mixing a 0.3% bovine-derived type II collagen solution with the same amount of a Freund's complete adjuvant. After 3 weeks after initial sensitization, a booster was conducted in a similar way to cause arthritis. The subjective compound was made into a solution (5 mg/ml) according to a general method, and the day of the booster and 3 days thereafter, the solution was intravenously administered in an amount of 10 ml/kg (50 mg/kg). In experiments, 8 mice were used for each of a control group and a drug-administered group. The condition of arthritis was evaluated macroscopically on limbs and graded into 5 score levels (0; normal, 1; flare on a finger joint, 2; slight edema on an entire leg, 3; edema on an entire leg, and 4; severe edema on an entire leg), to be shown as a total sum. […] The effect lasted even after the second administration and the inhibition effect was recognized even 36 days after the initial sensitization, i.e., 12 days after administration (FIG. 1). […]

`Nc1ccc(S(=O)(=O)Nc2cccc3c(Cl)c[nH]c23)cc1` [Compound 3, 4-Amino-N-(3-chloro-1H-indol-7-yl)benzenesulfonamide] gave an IC50 ([1]; Mus musculus, Lymphocyte) of 2270 nM.

`CS(=O)(=O)Nc1ccc(S(=O)(=O)Nc2cccc3c(Cl)c[nH]c23)cc1` [Compound 4, N-(3-Chloro-1H-indol-7-yl)-4-(methanesulfonamido)-benzenesulfonamide] gave an IC50 ([1]; Mus musculus, Lymphocyte) of 1430 nM.

In the case of `N#Cc1ccc(S(=O)(=O)Nc2cccc3c(Cl)c[nH]c23)cc1` [Compound 10, N-(3-Chloro-1H-indol-7-yl)-4-cyanobenzenesulfonamide], the “Onset of abnormality (limbs, tail, righting reflexes score)” value [2] is reported as “delayed expression of abnormality”, the “Severity of abnormality (limbs, tail, righting reflexes score)” value [2] is reported as “alleviated the severity” and the IC50 [1] is reported as 590 nM. The Body weight (mice) was “dose-dependent weight increases” and the Toxicity observation (mice) was “no observation showing toxicity”.

In the case of `N#Cc1c[nH]c2c(NS(=O)(=O)c3cccc(Cl)c3)cccc12` [Compound 17, 3-Chloro-N-(3-cyano-1H-indol-7-yl)benzenesulfonamide], the “Onset of abnormality (limbs, tail, righting reflexes score)” value [2] is reported as “delayed expression of abnormality”, the “Severity of abnormality (limbs, tail, righting reflexes score)” value [2] is reported as “alleviated the severity” and the IC50 ([1]; Mus musculus, Lymphocyte) is reported as 440 nM. The Body weight (mice) was “dose-dependent weight increases” and the Toxicity observation (mice) was “no observation showing toxicity”.

For `NS(=O)(=O)c1ccc(S(=O)(=O)Nc2cccc3c(Cl)c[nH]c23)cc1` [Compound 19, N-(3-Chloro-1H-indol-7-yl)-4-sulfamoylbenzenesulfonamide], the “Effect on crisis and development of arthritis (arthritis score, total sum)” value ([3]; 50 mg/kg intravenously on the day of the booster and 3 days thereafter) was “obvious inhibition effect for the crisis and development of arthritis”, the “Duration of the inhibition effect on arthritis, days after the initial sensitization” value ([3]; 50 mg/kg intravenously, i.e. 12 days after administration) was at least 36 days and the IC50 ([1]; Mus musculus, Lymphocyte) was 1830 nM.

For `N#Cc1ccc(S(=O)(=O)Nc2cccc3c(Cl)c[nH]c23)cc1` [Compound 28, 4-Cyano-N-(3-chloro-1H-indol-7-yl)benzenesulfonamide], the IC50 [1] was 2860 nM.

For `NC(=O)c1ccc(S(=O)(=O)Nc2cccc3c(Cl)c[nH]c23)cc1` [Compound 29, 4-Carbamoyl-N-(3-chloro-1H-indol-7-yl)benzenesulfonamide], the IC50 ([1]; Mus musculus, Lymphocyte) was 2020 nM.

Compound `Nc1ccncc1S(=O)(=O)Nc1cccc2c(Cl)c[nH]c12` [Compound 33, 4-Amino-N-(3-chloro-1H-indol-7-yl)-3-pyridinesulfonamide] has an IC50 ([1]; Mus musculus, Lymphocyte) of 470 nM.

Work on `NS(=O)(=O)CCc1ccc(S(=O)(=O)Nc2cccc3c(Cl)c[nH]c23)cc1` [Compound 35, N-(3-Chloro-1H-indol-7-yl)-4-(2-sulfamoylethyl)-benzenesulfonamide] yielded an IC50 ([1]; Mus musculus, Lymphocyte) of 670 nM.

Work on `CS(=O)(=O)CCc1ccc(S(=O)(=O)Nc2cccc3c(Cl)c[nH]c23)cc1` [Compound 36, N-(3-Chloro-1H-indol-7-yl)-4-[2-(methylsulfonyl)ethyl]-benzenesulfonamide] yielded an IC50 ([1]; Mus musculus, Lymphocyte) of 780 nM.

`N#Cc1c[nH]c2c(NS(=O)(=O)c3ccc(N)nc3)cccc12` [Compound 37, 6-Amino-N-(3-cyano-1H-indol-7-yl)-3-pyridinesulfonamide] gave an IC50 ([1]; Mus musculus, Lymphocyte) of 640 nM.

`N#Cc1cccc(S(=O)(=O)Nc2cccc3c(C#N)c[nH]c23)c1` [Compound 51, 3-Cyano-N-(3-cyano-1H-indol-7-yl)benzenesulfonamide] was tested, and the IC50 ([1]; Mus musculus, Lymphocyte) was 620 nM, the Body weight (mice) was “dose-dependent weight increases” and the Toxicity observation (mice) was “no observation showing toxicity”.

Compound `CS(=O)(=O)NCc1ccc(S(=O)(=O)Nc2cccc3c(Cl)c[nH]c23)cc1` [Compound 53, N-(3-Chloro-1H-indol-7-yl)-4-[(methanesulfonamido)methyl]-benzenesulfonamide] has an IC50 ([1]; Mus musculus, Lymphocyte) of 740 nM.

Work on `CS(=O)(=O)NCCc1ccc(S(=O)(=O)Nc2cccc3c(Cl)c[nH]c23)cc1` [Compound 62, N-(3-Chloro-1H-indol-7-yl)-4-[2-(methanesulfonamido)ethyl]-benzensulfonamide] yielded an IC50 ([1]; Mus musculus, Lymphocyte) of 580 nM.

Compound `CCNS(=O)(=O)c1ccc(S(=O)(=O)Nc2cccc3c(Cl)c[nH]c23)cc1` [Compound 69, N-(3-Chloro-1H-indol-7-yl)-4-(N-ethylsulfamoyl)-benzenesulfonamide] has an IC50 ([1]; Mus musculus, Lymphocyte) of 590 nM.

With `CCS(=O)(=O)Nc1ccc(S(=O)(=O)Nc2cccc3c(Cl)c[nH]c23)cc1` [Compound 70, N-(3-Chloro-1H-indol-7-yl)-4-(ethanesulfonamido)-benzenesulfonamide] the IC50 ([1]; Mus musculus, Lymphocyte) was 1400 nM.

`CNC(=O)c1ccc(S(=O)(=O)Nc2cccc3c(Cl)c[nH]c23)cc1` [Compound 72, N-(3-Chloro-1H-indol-7-yl)-4-(N-methylcarbamoyl)-benzenesulfonamide] gave an IC50 ([1]; Mus musculus, Lymphocyte) of 1810 nM.

With `NS(=O)(=O)Cc1ccc(S(=O)(=O)Nc2ccc(Cl)c3c(Cl)c[nH]c23)cc1` [Compound 77, N-(3,4-Dichloro-1H-indol-7-yl)-4-(sulfamoylmethyl)-benzenesulfonamide] the IC50 ([1]; Mus musculus, Lymphocyte) was 980 nM.

Compound `CC(=O)N(C)c1ccc(S(=O)(=O)Nc2cccc3c(Cl)c[nH]c23)cc1` [Compound 79, N-(3-Chloro-1H-indol-7-yl)-4-(N-methylacetamido)-benzenesulfonamide] has an IC50 ([1]; Mus musculus, Lymphocyte) of 360 nM.

In the case of `Cc1ccc(NS(=O)(=O)c2cccc(C#N)c2)c2[nH]cc(C#N)c12` [Compound 94, 3-Cyano-N-(3-cyano-4-methyl-1H-indol-7-yl)-benzenesulfonamide], the IC50 ([1]; Mus musculus, Lymphocyte) is reported as 250 nM, the Body weight (mice) is reported as “dose-dependent weight increases” and the Toxicity observation (mice) is reported as “no observation showing toxicity”.
